The source of these data is patent publication US9938273B2 (Plexxikon Inc., priority 2015, dated 2018).

The target in one test is T1, FLT3-ITD (Homo sapiens, UniProt P36888).
T1 sequence (P36888 1-993): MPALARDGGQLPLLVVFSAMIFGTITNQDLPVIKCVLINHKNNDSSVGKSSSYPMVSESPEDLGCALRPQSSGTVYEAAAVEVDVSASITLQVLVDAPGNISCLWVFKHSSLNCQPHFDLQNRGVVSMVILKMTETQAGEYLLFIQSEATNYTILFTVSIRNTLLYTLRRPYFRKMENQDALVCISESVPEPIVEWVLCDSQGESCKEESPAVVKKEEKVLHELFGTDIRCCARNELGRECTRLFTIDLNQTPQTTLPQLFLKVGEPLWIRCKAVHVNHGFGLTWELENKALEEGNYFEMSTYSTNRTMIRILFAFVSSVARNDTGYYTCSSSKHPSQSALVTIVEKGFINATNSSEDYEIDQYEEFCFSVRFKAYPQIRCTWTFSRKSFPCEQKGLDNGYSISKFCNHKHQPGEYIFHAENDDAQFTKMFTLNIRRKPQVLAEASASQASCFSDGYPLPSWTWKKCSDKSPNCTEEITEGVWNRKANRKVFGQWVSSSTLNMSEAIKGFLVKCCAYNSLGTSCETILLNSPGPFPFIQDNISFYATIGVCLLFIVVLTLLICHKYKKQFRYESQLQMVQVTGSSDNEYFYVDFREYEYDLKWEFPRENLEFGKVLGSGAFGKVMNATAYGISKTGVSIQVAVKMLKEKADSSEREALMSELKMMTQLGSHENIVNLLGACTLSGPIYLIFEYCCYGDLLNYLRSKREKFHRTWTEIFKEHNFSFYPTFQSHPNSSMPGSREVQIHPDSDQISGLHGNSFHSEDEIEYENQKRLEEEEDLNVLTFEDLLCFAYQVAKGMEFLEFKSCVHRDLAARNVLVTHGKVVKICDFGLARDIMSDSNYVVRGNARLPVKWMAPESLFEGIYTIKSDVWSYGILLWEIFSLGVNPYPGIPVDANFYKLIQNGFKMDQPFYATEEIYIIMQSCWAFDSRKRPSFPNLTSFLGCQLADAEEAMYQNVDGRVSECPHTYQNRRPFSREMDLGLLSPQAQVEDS
Description: AlphaScreen kinase assay with recombinant enzyme, FLT3-ITD. The test is classed as biochemical. As to conditions: 8pt; read-out: FLT3_ITD 8pt: IC50. As to the method:
(§1) In order to determine the effect of compounds on FLT3 catalytic activity, kinase assays using recombinant enzymes and AlphaScreen® technology have been established. The catalytic activity of c-kit activity was also measured to determine selectivity of the compounds. When the kinases are catalytically active, they phosphorylate a biotinylated peptide substrate on tyrosine residues. Using AlphaScreen® technology, the ability of the compounds to affect the catalytic activity of the kinases can be measured quantitatively. The peptide substrate is immobilized by the AlphaScreen® Streptavidin Donor beads and, upon phosphorylation by a tyrosine kinase, can bind to AlphaScreen® Anti-Phosphotyrosine (PY20) Acceptor beads. Upon excitation of these beads with laser light at 680 nm, singlet oxygen is produced. This singlet oxygen is rapidly quenched, unless the AlphaScreen® Anti-Phosphotyrosine (PY20) Acceptor beads are in close proximity, in which case a proximity signal can be measured at 580 nm. In the presence of catalytic activity, there is a very strong proximity signal. Selective kinase inhibitors affect a decrease in this proximity signal through a decrease in tyrosine phosphorylation of the peptide substrate.
(§2) The assay was performed as summarized below.
(§3) Poly (Glu4-Tyr) Peptide, biotin conjugate [Biotin-GG(EEEEY)10EE] (SEQ ID NO: 4)
(§4) Final concentration=30 nM
(§5) Final concentration for IC50 determination=10 μM (FLT3-D835Y or FLT3-ITD) or 100 μM (c-KIT)
(§6) AlphaScreen® Phosphotyrosine (PY20) Assay Kit
(§7) Final concentration=10 μg/mL
(§8) Dilute compounds in DMSO to 20× final concentration.
(§9) Add 1 μl of compound to each well of 384 well reaction plate (Perkin Elmer #6005359).
(§10) Mix enzyme and Poly (Glu4-Tyr) Peptide substrate at 1.33× final concentration in assay buffer.
(§11) Mix ATP at 5× final concentration in assay buffer.
(§12) Add 15 μL enzyme/substrate mixture to the reaction plate.
(§13) Add 4 μL of ATP to the reaction plate.
(§14) Mix Streptavidin Donor beads at 6× final concentration in Stop/Detection buffer.
(§15) Add 5 μL Streptavidin Donor beads to the reaction plate. Centrifuge 1 minute, shake to mix, and incubate at room temperature for 20 minutes.
(§16) Mix Anti-Phosphotyrosine (PY20) Acceptor beads at 6× final concentration in Stop/Detection buffer.
(§17) Add 5 μL Anti-Phosphotyrosine (PY20) beads to the reaction plate.
(§18) Centrifuge 1 minute, shake to mix, and incubate at room temperature for 60 minutes.
(§19) Read plate on Wallac EnVision™ 2103 Multilabel Reader.
In general terms: Alpha assays give light when donor and acceptor beads are brought close together.

For the next test, the target named is T2, FLT3-D835Y (Homo sapiens, UniProt P36888, D835Y).
T2 construct: purchased Invitrogen PV3967
T2 sequence (P36888 27-993 D835Y): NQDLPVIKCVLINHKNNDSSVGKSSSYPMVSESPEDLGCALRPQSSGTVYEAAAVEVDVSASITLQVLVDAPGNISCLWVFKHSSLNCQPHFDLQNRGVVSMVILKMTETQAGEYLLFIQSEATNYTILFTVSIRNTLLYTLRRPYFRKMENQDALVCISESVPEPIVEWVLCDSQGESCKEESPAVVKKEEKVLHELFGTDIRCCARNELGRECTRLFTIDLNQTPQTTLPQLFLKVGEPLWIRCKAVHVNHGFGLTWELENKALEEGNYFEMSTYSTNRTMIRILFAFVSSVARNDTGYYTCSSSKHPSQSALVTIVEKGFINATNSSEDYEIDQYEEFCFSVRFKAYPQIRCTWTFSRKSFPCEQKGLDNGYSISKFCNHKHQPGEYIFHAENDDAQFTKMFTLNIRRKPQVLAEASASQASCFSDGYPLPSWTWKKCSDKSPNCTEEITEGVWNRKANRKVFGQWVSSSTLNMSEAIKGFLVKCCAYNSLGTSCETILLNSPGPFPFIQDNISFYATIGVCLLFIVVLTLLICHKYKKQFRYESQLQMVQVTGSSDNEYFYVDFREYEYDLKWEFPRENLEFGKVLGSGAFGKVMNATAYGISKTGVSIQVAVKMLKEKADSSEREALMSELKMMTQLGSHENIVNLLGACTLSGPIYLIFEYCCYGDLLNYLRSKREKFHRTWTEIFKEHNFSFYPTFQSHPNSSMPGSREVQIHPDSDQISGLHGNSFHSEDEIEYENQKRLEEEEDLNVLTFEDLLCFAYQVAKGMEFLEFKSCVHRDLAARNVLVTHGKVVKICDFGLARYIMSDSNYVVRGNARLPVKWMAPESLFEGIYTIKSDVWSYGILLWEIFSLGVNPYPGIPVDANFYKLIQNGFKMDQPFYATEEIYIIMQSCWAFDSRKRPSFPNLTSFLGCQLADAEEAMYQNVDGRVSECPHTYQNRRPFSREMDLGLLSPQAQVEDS
Description: AlphaScreen kinase assay with recombinant enzyme, FLT3-D835Y. The test is classed as biochemical. To be noted: 8pt, GMean. As for the experimental part: as §1, §2, §3, §4, §5, §6, §7, §8, §9, §10, §11, §12, §13, §14, §15, §16, §17, §18, §19

`O=C(c1cccc(-c2cnc3[nH]c(-c4ccccc4)cc3c2)n1)N1CCC(F)(F)C1` [Compound P-0093, (3,3-difluoropyrrolidin-1-yl)-[6-(2-phenyl-1H-pyrrolo[2,3-b]pyridin-5-yl)-2-pyridyl]methanone]: the IC50 at FLT3-ITD and at FLT3-D835Y was 0.0001 to 10 µM in each case. As for `COC1CCN(C(=O)c2cccc(-c3cnc4[nH]c(-c5ccccc5)cc4c3)n2)C1` (stereo not shown) [Compound P-0095, (3-methoxypyrrolidin-1-yl)-[6-(2-phenyl-1H-pyrrolo[2,3-b]pyridin-5-yl)-2-pyridyl]methanone], the IC50 on FLT3-ITD and on FLT3-D835Y was 0.0001 to 10 µM throughout.

As for `CNC(=O)C1CCN(C(=O)c2cccc(-c3cnc4[nH]c(-c5ccccc5)cc4c3)n2)C1` (stereo not shown) [Compound P-0096, N-methyl-1-[6-(2-phenyl-1H-pyrrolo[2,3-b]pyridin-5-yl)pyridine-2-carbonyl]pyrrolidine-3-carboxamide], the IC50 at FLT3-ITD and on FLT3-D835Y was 0.0001 to 10 µM each time. For `O=C(c1cccc(-c2cnc3[nH]c(-c4ccccc4)cc3c2)n1)N1CCC(n2ccnc2)C1` (stereo not shown) [Compound P-0097, (3-imidazol-1-ylpyrrolidin-1-yl)-[6-(2-phenyl-1H-pyrrolo[2,3-b]pyridin-5-yl)-2-pyridyl]methanone], the half-maximal inhibitory concentration (IC50) on FLT3-ITD and at FLT3-D835Y was 0.0001 to 10 µM throughout. Take `N#CCCNC(=O)c1cccc(-c2cnc3[nH]c(-c4ccccc4)cc3c2)n1` [Compound P-0099, N-(2-cyanoethyl)-6-(2-phenyl-1H-pyrrolo[2,3-b]pyridin-5-yl)pyridine-2-carboxamide]: the concentration for half-maximal inhibition (IC50) at FLT3-ITD and on FLT3-D835Y was 0.0001 to 10 µM each time. On to `CC(C)(C#N)CNC(=O)c1cccc(-c2cnc3[nH]c(-c4ccccc4)cc3c2)n1` [Compound P-0100, N-(2-cyano-2-methyl-propyl)-6-(2-phenyl-1H-pyrrolo[2,3-b]pyridin-5-yl)pyridine-2-carboxamide], for which the half-maximal inhibitory concentration (IC50) on FLT3-ITD and on FLT3-D835Y was 0.0001 to 10 µM each time. In the case of `N#CC1CCN(C(=O)c2cccc(-c3cnc4[nH]c(-c5ccccc5)cc4c3)n2)C1` (stereo not shown) [Compound P-0105, 1-[6-(2-phenyl-1H-pyrrolo[2,3-b]pyridin-5-yl)pyridine-2-carbonyl]pyrrolidine-3-carbonitrile], the IC50 on FLT3-ITD and on FLT3-D835Y was 0.0001 to 10 µM throughout. Regarding `CN[C@@H]1CCN(C(=O)c2ccc(-c3cnc4[nH]c(-c5ccccc5)cc4c3)s2)C1` [Compound P-0106, [(3R)-3-(methylamino)pyrrolidin-1-yl]-[5-(2-phenyl-1H-pyrrolo[2,3-b]pyridin-5-yl)-2-thienyl]methanone], the half-inhibitory concentration (IC50) at FLT3-ITD and on FLT3-D835Y was 0.0001 to 10 µM throughout. For `CS(=O)(=O)N1CCC(NS(=O)(=O)c2cccc(-c3cnc4[nH]c(-c5ccccc5)cc4c3)n2)C1` (stereo not shown) [Compound P-0107, N-(1-methylsulfonylpyrrolidin-3-yl)-6-(2-phenyl-1H-pyrrolo[2,3-b]pyridin-5-yl)pyridine-2-sulfonamide], the concentration for half-maximal inhibition (IC50) at FLT3-ITD and on FLT3-D835Y was 0.0001 to 10 µM each time.

For `O=S(=O)(NC1CC1)c1cccc(-c2cnc3[nH]c(-c4ccccc4)cc3c2)n1` [Compound P-0109, N-cyclopropyl-6-(2-phenyl-1H-pyrrolo[2,3-b]pyridin-5-yl)pyridine-2-sulfonamide], the 50% inhibitory concentration (IC50) on FLT3-ITD and on FLT3-D835Y was 0.0001 to 10 µM throughout. For the compound `N#CC1(NC(=O)c2cccc(-c3cnc4[nH]c(-c5ccccc5)cc4c3)n2)CC1` [Compound P-0111, N-(1-cyanocyclopropyl)-6-(2-phenyl-1H-pyrrolo[2.3-b]pyridin-5-yl]pyridine-2-carboxamide], the IC50 at FLT3-ITD and on FLT3-D835Y was 0.0001 to 10 µM throughout.

Take `O=C(c1cccc(-c2cnc3[nH]c(-c4cnn(CC(F)(F)F)c4)cc3c2)n1)N1CCC(F)(F)C1` [Compound P-0112, (3,3-difluoropyrrolidin-1-yl)-[6-[2-[1-(2,2,2-trifluoroethyl)pyrazol-4-yl]-1H-pyrrolo[2,3-b]pyridin-5-yl]-2-pyridyl]methanone]: the IC50 on FLT3-ITD and on FLT3-D835Y was 0.0001 to 10 µM throughout. For the compound `CC(C)(C#N)CNC(=O)c1cccc(-c2cnc3[nH]c(-c4cnn(CC(F)(F)F)c4)cc3c2)n1` [Compound P-0113, N-(2-cyano-2-methyl-propyl)-6-[2-[1-(2,2,2-trifluoroethyl)pyrazol-4-yl]-1H-pyrrolo[2,3-b]pyridin-5-yl]pyridine-2-carboxamide], the IC50 on FLT3-ITD and at FLT3-D835Y was 0.0001 to 10 µM each time. Regarding `N#CC1(NC(=O)c2cccc(-c3cnc4[nH]c(-c5ccccc5)cc4c3)n2)CCC1` [Compound P-0114, N-(1-cyanocyclobutyl)-6-(2-phenyl-1H-pyrrolo[2,3-b]pyridin-5-yl)pyridine-2-carboxamide], the IC50 on FLT3-ITD and at FLT3-D835Y was 0.0001 to 10 µM each time. Regarding `N#CC1(F)CCN(C(=O)c2cccc(-c3cnc4[nH]c(-c5ccccc5)cc4c3)n2)C1` (stereo not shown) [Compound P-0115, 3-fluoro-1-[6-(2-phenyl-1H-pyrrolo[2,3-b]pyridin-5-yl)pyridine-2-carbonyl]pyrrolidine-3-carbonitrile], the IC50 on FLT3-ITD and on FLT3-D835Y was 0.0001 to 10 µM in each case.

`N#CC1CCN(S(=O)(=O)c2cccc(-c3cnc4[nH]c(-c5ccccc5)cc4c3)n2)C1` (stereo not shown) [Compound P-0121, 1-[[6-(2-phenyl-1H-pyrrolo[2,3-b]pyridin-5-yl)-2-pyridyl]sulfonyl]pyrrolidine-3-carbonitrile]: the half-inhibitory concentration (IC50) (as a rule, the point on the concentration scale where inhibition reaches its midpoint) on FLT3-D835Y lay within 0.0001 to 10 µM.
